Measurements published in patent US20260021103A1, “IKZF2 AND CK1-ALPHA DEGRADING COMPOUNDS AND USES THEREOF” (President and Fellows of Harvard College, priority 2022, published 2026).

Columns and labels:
IKZF1 = target: T1, IKZF1 (Homo sapiens, UniProt Q13422+Q96SW2); assay: Flow cytometry for measuring degradation, HEK293T GFP-POI reporter cells (IKZF1); type: cell-based; conditions: for IKZF1% degradation at 100 nM / IKZF1% degradation at 1 μM: 24 h, HEK293T GFP reporter; for Dmax: HEK-293T, Table 3
T1 construct: expressed in transfected cells; host or cells: HEK293T (lentiviral transduction, puromycin selection, FACS sorting)
T1 sequence (Q13422 whole entry): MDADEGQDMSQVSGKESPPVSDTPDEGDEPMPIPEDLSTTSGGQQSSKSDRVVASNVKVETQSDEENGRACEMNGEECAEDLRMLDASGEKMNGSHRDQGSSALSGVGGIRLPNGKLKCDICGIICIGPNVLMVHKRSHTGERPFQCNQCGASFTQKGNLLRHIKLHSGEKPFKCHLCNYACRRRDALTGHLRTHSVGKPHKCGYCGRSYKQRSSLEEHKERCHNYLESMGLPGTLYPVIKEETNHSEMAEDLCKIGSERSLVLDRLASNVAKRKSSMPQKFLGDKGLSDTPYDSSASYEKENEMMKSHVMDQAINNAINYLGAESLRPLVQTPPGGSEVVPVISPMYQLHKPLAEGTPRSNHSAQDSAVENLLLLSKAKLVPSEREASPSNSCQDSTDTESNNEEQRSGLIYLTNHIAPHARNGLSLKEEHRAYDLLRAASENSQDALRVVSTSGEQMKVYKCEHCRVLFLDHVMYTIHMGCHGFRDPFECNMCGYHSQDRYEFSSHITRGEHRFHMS
T1 sequence (Q96SW2 whole entry): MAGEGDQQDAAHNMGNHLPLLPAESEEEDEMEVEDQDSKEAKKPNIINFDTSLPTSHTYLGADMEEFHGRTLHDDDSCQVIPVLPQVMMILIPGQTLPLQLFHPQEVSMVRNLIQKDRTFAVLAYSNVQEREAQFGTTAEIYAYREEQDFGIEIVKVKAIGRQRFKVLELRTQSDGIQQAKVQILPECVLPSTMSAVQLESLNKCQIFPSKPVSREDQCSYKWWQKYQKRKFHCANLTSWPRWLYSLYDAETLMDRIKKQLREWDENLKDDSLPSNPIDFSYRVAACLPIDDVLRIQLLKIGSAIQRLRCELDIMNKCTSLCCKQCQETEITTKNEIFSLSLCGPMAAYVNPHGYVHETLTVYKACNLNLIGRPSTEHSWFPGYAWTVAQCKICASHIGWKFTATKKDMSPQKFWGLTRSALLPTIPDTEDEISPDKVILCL
T1 sequence (Q16531 whole entry partner): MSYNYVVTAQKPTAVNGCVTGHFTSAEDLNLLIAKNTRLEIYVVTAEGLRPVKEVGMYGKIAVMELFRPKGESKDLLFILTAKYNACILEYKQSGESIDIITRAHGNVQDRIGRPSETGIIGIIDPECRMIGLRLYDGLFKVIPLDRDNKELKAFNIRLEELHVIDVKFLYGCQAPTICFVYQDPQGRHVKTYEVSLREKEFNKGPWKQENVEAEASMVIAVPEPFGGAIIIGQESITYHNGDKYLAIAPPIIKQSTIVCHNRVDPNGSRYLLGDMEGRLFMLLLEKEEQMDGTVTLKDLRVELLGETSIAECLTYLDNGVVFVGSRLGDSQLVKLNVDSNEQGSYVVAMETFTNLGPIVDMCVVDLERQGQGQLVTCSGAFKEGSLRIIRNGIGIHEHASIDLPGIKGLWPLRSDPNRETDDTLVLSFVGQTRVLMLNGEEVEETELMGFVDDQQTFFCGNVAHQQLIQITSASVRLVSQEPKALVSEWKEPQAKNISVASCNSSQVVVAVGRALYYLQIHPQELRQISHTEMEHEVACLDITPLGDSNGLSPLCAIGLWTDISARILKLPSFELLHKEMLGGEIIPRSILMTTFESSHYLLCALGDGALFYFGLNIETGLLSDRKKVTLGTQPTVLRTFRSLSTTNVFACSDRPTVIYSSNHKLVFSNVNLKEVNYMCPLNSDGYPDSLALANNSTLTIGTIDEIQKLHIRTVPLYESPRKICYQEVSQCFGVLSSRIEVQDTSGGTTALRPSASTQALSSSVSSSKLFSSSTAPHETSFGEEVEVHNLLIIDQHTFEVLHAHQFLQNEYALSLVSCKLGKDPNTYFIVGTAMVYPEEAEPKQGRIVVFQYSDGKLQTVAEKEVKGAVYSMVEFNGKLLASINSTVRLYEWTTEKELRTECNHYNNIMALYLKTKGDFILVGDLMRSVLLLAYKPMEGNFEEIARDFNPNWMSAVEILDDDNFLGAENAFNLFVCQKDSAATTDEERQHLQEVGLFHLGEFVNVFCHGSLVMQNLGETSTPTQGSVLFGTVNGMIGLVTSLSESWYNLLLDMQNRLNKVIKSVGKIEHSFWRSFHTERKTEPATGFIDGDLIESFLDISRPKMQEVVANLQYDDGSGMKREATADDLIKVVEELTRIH

IKZF2 = target: T2, IKZF2 (Homo sapiens, UniProt Q96SW2+Q9UKS7); assay: Flow cytometry for measuring degradation, HEK293T GFP-POI reporter cells (IKZF2); type: cell-based; conditions: for IKZF2% degradation at 100 nM / IKZF2% degradation at 1 μM: 24 h, HEK293T GFP reporter; for Dmax: HEK-293T; for Dmax / DC50: Table 3
T2 construct: expressed in transfected cells; host or cells: HEK293T (lentiviral transduction, puromycin selection, FACS sorting)
T2 sequence (Q9UKS7 whole entry): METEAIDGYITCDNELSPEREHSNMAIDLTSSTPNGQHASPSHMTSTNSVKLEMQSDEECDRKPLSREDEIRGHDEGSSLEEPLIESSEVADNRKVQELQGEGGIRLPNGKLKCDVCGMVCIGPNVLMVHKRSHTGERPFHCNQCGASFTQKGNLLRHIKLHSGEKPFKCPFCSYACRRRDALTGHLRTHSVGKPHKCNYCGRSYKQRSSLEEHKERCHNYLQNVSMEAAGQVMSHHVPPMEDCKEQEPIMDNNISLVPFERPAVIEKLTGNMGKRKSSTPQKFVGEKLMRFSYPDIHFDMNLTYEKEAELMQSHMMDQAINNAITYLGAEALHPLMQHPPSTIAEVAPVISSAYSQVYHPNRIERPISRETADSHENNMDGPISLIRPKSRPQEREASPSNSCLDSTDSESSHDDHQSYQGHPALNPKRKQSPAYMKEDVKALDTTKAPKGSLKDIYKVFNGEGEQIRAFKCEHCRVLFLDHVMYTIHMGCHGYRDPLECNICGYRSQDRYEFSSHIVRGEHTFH
T2 sequence (Q96SW2 whole entry): as the sequence (Q96SW2 whole entry) above
T2 sequence (Q16531 whole entry partner): as the sequence (Q16531 whole entry partner) above

CK1α = target: T3, CK1α (Homo sapiens, UniProt P48729+Q96SW2); assay: Flow cytometry for measuring degradation, HEK293T GFP-POI reporter cells (CK1α); type: cell-based; conditions: for CK1α % degradation at 100 nM / CK1α % degradation at 1 μM: 24 h, HEK293T GFP reporter; for Dmax: CK1, read-out: Dmax CK1a (%); for Dmax / DC50: Table 3; for DC50: read-out: DC50 CK1a
T3 construct: expressed in transfected cells; host or cells: HEK293T (lentiviral transduction, puromycin selection, FACS sorting)
T3 sequence (P48729 whole entry): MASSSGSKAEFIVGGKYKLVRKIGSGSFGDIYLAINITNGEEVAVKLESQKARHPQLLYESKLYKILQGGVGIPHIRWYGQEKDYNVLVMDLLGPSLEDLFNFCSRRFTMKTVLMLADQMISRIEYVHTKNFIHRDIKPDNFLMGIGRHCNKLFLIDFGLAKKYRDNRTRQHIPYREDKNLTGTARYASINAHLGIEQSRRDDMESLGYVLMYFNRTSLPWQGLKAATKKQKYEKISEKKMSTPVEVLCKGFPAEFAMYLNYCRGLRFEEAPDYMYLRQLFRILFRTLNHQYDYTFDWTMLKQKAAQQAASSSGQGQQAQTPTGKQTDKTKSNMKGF
T3 sequence (Q96SW2 whole entry): as the sequence (Q96SW2 whole entry) above
T3 sequence (Q16531 whole entry partner): as the sequence (Q16531 whole entry partner) above

GSPT1 = GSPT1 (Homo sapiens, UniProt P15170+Q96SW2); assay: Flow cytometry for measuring degradation, HEK293T GFP-POI reporter cells (GSPT1); type: cell-based; set-up: expressed in transfected cells; host or cells: HEK293T; conditions: for GSPT1% degradation at 100 nM / GSPT1% degradation at 1 μM: 24 h, HEK293T GFP reporter; for Dmax: HEK-293T, Table 3
Sequence of GSPT1 (P15170 whole entry): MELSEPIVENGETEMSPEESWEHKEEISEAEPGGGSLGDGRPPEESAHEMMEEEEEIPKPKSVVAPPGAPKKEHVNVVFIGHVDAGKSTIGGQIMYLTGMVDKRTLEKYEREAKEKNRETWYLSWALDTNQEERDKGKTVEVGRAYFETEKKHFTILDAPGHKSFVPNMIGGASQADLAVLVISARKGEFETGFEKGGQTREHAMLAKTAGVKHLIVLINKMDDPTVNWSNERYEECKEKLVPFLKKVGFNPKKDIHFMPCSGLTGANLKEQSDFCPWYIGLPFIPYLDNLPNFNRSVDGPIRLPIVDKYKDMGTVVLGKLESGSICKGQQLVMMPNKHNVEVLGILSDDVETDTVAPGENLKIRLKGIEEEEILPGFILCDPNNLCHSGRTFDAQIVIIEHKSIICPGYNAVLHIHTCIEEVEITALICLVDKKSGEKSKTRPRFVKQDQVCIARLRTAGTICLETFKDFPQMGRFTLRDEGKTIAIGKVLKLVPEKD
Sequence of GSPT1 (Q96SW2 whole entry): as the sequence (Q96SW2 whole entry) above
Sequence of GSPT1 (Q16531 whole entry partner): as the sequence (Q16531 whole entry partner) above

[1] = In vitro solubility in DMSO; type: physicochemical; conditions: DMSO, organic solvent or mixture

SMILES | IKZF1% degradation at 100 nM (IKZF1) | IKZF1% degradation at 1 μM (IKZF1) | IKZF2% degradation at 100 nM (IKZF2) | IKZF2% degradation at 1 μM (IKZF2) | CK1α % degradation at 100 nM (CK1α) | CK1α % degradation at 1 μM (CK1α) | GSPT1% degradation at 100 nM (GSPT1) | GSPT1% degradation at 1 μM (GSPT1) | Dmax (IKZF1) | Dmax (IKZF2) | DC50 (IKZF2) | Dmax (CK1α) | DC50 (CK1α) | solubility [1] | Dmax (GSPT1)
COc1cc(C(=O)Nc2ccc3c(c2)CN(C2CCC(=O)NC2=O)C3=O)ccc1Oc1ccccc1 (centres unmarked) [DEG-76, N-(2-(2,6-dioxopiperidin-3-yl)-1-oxoisoindolin-5-yl)-3-methoxy-4-phenoxybenzamide] | 8.7 ± 1.8% | 17.2 ± 1.2% | 81.8 ± 0.4% | 92.8 ± 0% | 64.1 ± 0.8% | 69.9 ± 0.5% | 12.1 ± 0.5% | 21.3 ± 1.7% |  |  |  |  |  |  | 
COc1ccc2c(c1)C=C(C(=O)Nc1ccc3c(c1)CN(C1CCC(=O)NC1=O)C3=O)CO2 (centres unmarked) [DEG-78, N-(2-(2,6-dioxopiperidin-3-yl)-1-oxoisoindolin-5-yl)-6-methoxy-2H-chromene-3-carboxamide] | 15.7 ± 1.1% | 33.9 ± 0.9% | 75 ± 0.8% | 90.3 ± 0% | 65.5 ± 1.3% | 69.5 ± 1.4% | 9.2 ± 0.8% | 14.4 ± 0.5% |  |  |  |  |  |  | 
COc1cccc2c1C=C(C(=O)Nc1ccc3c(c1)CN(C1CCC(=O)NC1=O)C3=O)CO2 (centres unmarked) [DEG-79, N-(2-(2,6-dioxopiperidin-3-yl)-1-oxoisoindolin-5-yl)-5-methoxy-2H-chromene-3-carboxamide] | 39.4 ± 0.8% | 70.3 ± 0.2% | 74.6 ± 0.3% | 93 ± 0.1% | 59.4 ± 1% | 38.1 ± 3.4% | 24 ± 1% | 44.3 ± 1.3% |  |  |  |  |  |  | 
Cc1ccc2c(c1)OCC(C(=O)Nc1ccc3c(c1)CN(C1CCC(=O)NC1=O)C3=O)=C2 (centres unmarked) [DEG-80, N-(2-(2,6-dioxopiperidin-3-yl)-1-oxoisoindolin-5-yl)-7-methyl-2H-chromene-3-carboxamide] | 8.6 ± 0.1% | 24 ± 0.1% | 72.6 ± 0.9% | 91.5 ± 0.2% | 63.5 ± 1.5% | 66.9 ± 1.1% | 14.3 ± 2.1% | 28 ± 0.8% |  |  |  |  |  |  | 
O=C1CCC(N2Cc3cc(NC(=O)C4=Cc5ccc(C(F)(F)F)cc5OC4)ccc3C2=O)C(=O)N1 (centres unmarked) [DEG-81, N-(2-(2,6-dioxopiperidin-3-yl)-1-oxoisoindolin-5-yl)-7-(trifluoromethyl)-2H-chromene-3-carboxamide] | 8 ± 0.5% | 17.4 ± 3.3% | 75.1 ± 0.5% | 91.8 ± 0.1% | 66.3 ± 2% | 72 ± 0.3% | 2.8 ± 0.8% | 11.9 ± 1.9% |  |  |  |  |  |  | 
O=C1CCC(N2Cc3cc(NC(=O)C4=Cc5ccc(OC(F)(F)F)cc5OC4)ccc3C2=O)C(=O)N1 (centres unmarked) [DEG-82, N-(2-(2,6-dioxopiperidin-3-yl)-1-oxoisoindolin-5-yl)-7-(trifluoromethoxy)-2H-chromene-3-carboxamide] | 10.6 ± 1.2% | 19.9 ± 0.3% | 85.4 ± 0% | 93.3 ± 0.1% | 58 ± 2.2% | 62.7 ± 1.4% | 6.1 ± 0.3% | 12.3 ± 0.9% |  |  |  |  |  |  | 
O=C1CCC(N2Cc3cc(NC(=O)C4=Cc5ccc(Br)cc5OC4)ccc3C2=O)C(=O)N1 (centres unmarked) [DEG-83, 7-bromo-N-(2-(2,6-dioxopiperidin-3-yl)-1-oxoisoindolin-5-yl)-2H-chromene-3-carboxamide] | 12.9 ± 1% | 47.5 ± 0.2% | 80.4 ± 0.5% | 94.4 ± 0.2% | 61.9 ± 0.4% | 30.2 ± 2.3% | 21.8 ± 2.3% | 49 ± 0.8% |  |  |  |  |  |  | 

More lines, now with the values ahead:

IKZF1% degradation at 100 nM (IKZF1) | IKZF1% degradation at 1 μM (IKZF1) | IKZF2% degradation at 100 nM (IKZF2) | IKZF2% degradation at 1 μM (IKZF2) | CK1α % degradation at 100 nM (CK1α) | CK1α % degradation at 1 μM (CK1α) | GSPT1% degradation at 100 nM (GSPT1) | GSPT1% degradation at 1 μM (GSPT1) | Dmax (IKZF1) | Dmax (IKZF2) | DC50 (IKZF2) | Dmax (CK1α) | DC50 (CK1α) | solubility [1] | Dmax (GSPT1) | SMILES
12.6 ± 0.5% | 26.1 ± 0.5% | 74.4 ± 0.4% | 87.8 ± 0.2% | 64.7 ± 0.1% | 68 ± 1.8% | 1.6 ± 1.1% | 4.1 ± 2.6% |  |  |  |  |  |  |  | COc1cc(Br)cc2c1OCC(C(=O)Nc1ccc3c(c1)CN(C1CCC(=O)NC1=O)C3=O)=C2 (centres unmarked) [DEG-84, 6-bromo-N-(2-(2,6-dioxopiperidin-3-yl)-1-oxoisoindolin-5-yl)-8-methoxy-2H-chromene-3-carboxamide]
12.3 ± 0.9% | 22.6 ± 0.5% | 48.7 ± 1.1% | 62.6 ± 0.5% | 46.5 ± 2.5% | 54.7 ± 1.2% | 5.3 ± 2% | 9.2 ± 0.7% |  |  |  |  |  |  |  | O=C1CCC(N2Cc3cc(NC(=O)C4=Cc5cc(Br)cc(Br)c5OC4)ccc3C2=O)C(=O)N1 (centres unmarked) [DEG-86, 6,8-dibromo-N-(2-(2,6-dioxopiperidin-3-yl)-1-oxoisoindolin-5-yl)-2H-chromene-3-carboxamide]
15.5 ± 1% | 27.2 ± 0.7% | 74 ± 0.5% | 89.1 ± 0.4% | 51.1 ± 1.2% | 56.9 ± 0.8% | 1.2 ± 2.5% | 4 ± 0.6% |  |  |  |  |  |  |  | O=C1CCC(N2Cc3cc(NC(=O)c4ccc5c(c4)CCCC5)ccc3C2=O)C(=O)N1 (centres unmarked) [DEG-87, N-(2-(2,6-dioxopiperidin-3-yl)-1-oxoisoindolin-5-yl)-5,6,7,8-tetrahydronaphthalene-2-carboxamide]
6 ± 0.1% | 6.3 ± 1.6% | 60 ± 1% | 89 ± 0.2% | 54.5 ± 0.6% | 71.1 ± 0.6% | −1.9 ± 1.4% | 7.8 ± 1.4% |  |  |  |  |  |  |  | O=C1CCC(N2Cc3cc(NC(=O)c4ccc5cc(O)ccc5c4)ccc3C2=O)C(=O)N1 (centres unmarked) [DEG-90, N-(2-(2,6-dioxopiperidin-3-yl)-1-oxoisoindolin-5-yl)-6-hydroxy-2-naphthamide]
8.5% | 14.4% | 89.4% | 95.3% | 74.6% | 80.3% | 9.7% | 11.5% | 20.6% | 96.6% | 7 nM | 81.2% | 2.6 nM | > 100 mM | 14.8% | N#Cc1ccc2cc(C(=O)Nc3ccc4c(c3)CN(C3CCC(=O)NC3=O)C4=O)ccc2c1 (centres unmarked) [DEG-91, 6-cyano-N-(2-(2,6-dioxopiperidin-3-yl)-1-oxoisoindolin-5-yl)-2-naphthamide]
6.7% | 8.3% | 87.6% | 94.5% | 76.2% | 80.1% | 5.3% | 5.0% | 14.5% | 95.9% | 7.9 nM | 80.2% | 2.9 nM | > 100 mM | 12.8% | COCOc1ccc2cc(C(=O)Nc3ccc4c(c3)CN(C3CCC(=O)NC3=O)C4=O)ccc2c1 (centres unmarked) [DEG-92, N-(2-(2,6-dioxopiperidin-3-yl)-1-oxoisoindolin-5-yl)-6-(methoxymethoxy)-2-naphthamide]
4.9% | 7.0% | 56.0% | 87.7% | 60.2% | 74.6% | 7.8% | 10.6% | 10.4% | 95.1% | 73.1 nM | 78.9% | 21.1 nM |  | 14.6% | CS(=O)(=O)c1ccc2cc(C(=O)Nc3ccc4c(c3)CN(C3CCC(=O)NC3=O)C4=O)ccc2c1 (centres unmarked) [DEG-93, N-(2-(2,6-dioxopiperidin-3-yl)-1-oxoisoindolin-5-yl)-6-(methylsulfonyl)-2-naphthamide]
8.7% | 20.8% | 51.8% | 85.2% | 51.3% | 71.5% | 9.3% | 13.2% | 30.5% | 92.8% | 78.8 nM | 76.7% | 42.5 nM |  | 13.7% | CN1C(=O)COc2cc(C(=O)Nc3ccc4c(c3)CN(C3CCC(=O)NC3=O)C4=O)ccc21 (centres unmarked) [DEG-94, N-(2-(2,6-dioxopiperidin-3-yl)-1-oxoisoindolin-5-yl)-4-methyl-3-oxo-3,4-dihydro-2H-benzo[b][1,4]oxazine-7-carboxamide]
